In one data set the test system is high grade gliomas. The settings on record: advanced cancer patients; cited from earlier work.
Data set [1] has as its system diffuse midline glioma, H3 K27M-mutant. The settings on record: patients with DMG H3K27M; cited from earlier work.
Another data set relates to endometrial cancer. The settings on record: advanced cancer patients; cited from earlier work.
Data set [2] can be described thus: pharmacokinetics/toxicokinetics in dogs. The settings on record: dog, in vivo.
Data set [3] can be described thus: solubility in water, ONC-201 dihydrochloride salt vs free base. It is filed as physicochemical. As for the experimental part:
(§1) Dihydrochloride salts of compounds within the class of impiridones of which ONC-206 is a member, achieve unexpected technical effects. […] In addition, after two months at 25° C. and at 40° C., the percentage of impurities in the dihydrochloride salt is not detected and 3%, respectively; while for the free base the corresponding the percentage of impurities is 20% and 24%, respectively. This technical effect appears to extend to the class of impiridones.

A short description of data set [4]: stability: percentage of impurities after two months. In kind it is physicochemical. The procedure: as §1

The text below walks through data of patent publication US20240238297A1, “USES AND METHODS FOR RECURRENT PRIMARY CNS NEOPLASMS” (CHIMERIX, INC., priority 2021, published 2024).

Where a name gives a salt, the structure may show the parent alone.

Regarding `Cc1ccccc1CN1C(=O)C2=C(CCN(Cc3ccccc3)C2)N2CCN=C12` [ONC201, 7-benzyl-4-(2-methylbenzyl)-2,4,6,7,8,9-hexahydroimidazo[1,2-a]pyrido[3,4-e]pyrimidin-5(1H)-one], the RANO response entry in the data set with high grade gliomas was “several patients achieved a RANO response”. Further, in data set [1], the “tumor response in patients” value is “induced durable tumor regressions”. Moreover, the “PFS compared to historical control” value in the data set on endometrial cancer is listed as “several patients experienced prolonged PFS”.
For the compound `O=C1C2=C(CCN(Cc3ccccc3)C2)N2CCN=C2N1Cc1ccc(F)cc1F` [ONC206, 7-benzyl-4-(2,4-difluorobenzyl)-2,4,6,7,8,9-hexahydroimidazo[1,2-a]pyrido[3,4-e]pyrimidin-5(1H)-one], the half-life (usually how long it takes for the measured level to halve) in data set [2] (beagle) was 0.7 to 7.1 h. In addition, in data set [2] (both, Beagle, po), the apparent clearance (CL/F) – broadly, clearance divided by bioavailability, as obtained after extravascular dosing – lay in the range of 83.3 to 1680 mL/min/kg; the Vd/F (as a rule, the volume of distribution divided by bioavailability) lay in the range of 25.2 to 259 L/kg; the half-life fell in the range of 0.7 to 7.1 h.
For the compound `Cc1ccccc1CN1C(=O)C2=C(CCN(Cc3ccccc3)C2)N2CCN=C12` [ONC-201 dihydrochloride salt, 7-benzyl-4-(2-methylbenzyl)-2,4,6,7,8,9-hexahydroimidazo[1,2-a]pyrido[3,4-e]pyrimidin-5(1H)-one], the solubility in water result in data set [3] was “greater than 50 mg/mL”. For the same compound, the results for the percentage of impurities result in data set [4] (after two months at 25° C.) and in data set [4] (after two months at 40° C.) were “not detected” and 3%, respectively.
In the same order, the values of `Cc1ccccc1CN1C(=O)C2=C(CCN(Cc3ccccc3)C2)N2CCN=C12` [ONC-201 free base, 7-benzyl-4-(2-methylbenzyl)-2,4,6,7,8,9-hexahydroimidazo[1,2-a]pyrido[3,4-e]pyrimidin-5(1H)-one] are “less than 1 mg/mL”, 20% and 24%.
